Measurements published in patent US6974804B2, “Esters” (Unilever Home & Personal Care USA, division of Conopco, Inc., priority 2000, dated 2005).

Columns and labels:
Assay type in all cases: physicochemical
[1] = DSC of gels: fibre dissolution temperature (FDT) and solubility of structurant; conditions: for Solubility of structurant at 25° C.: from DSC of gel, relative to benchmark REF 2; for FDT: gel heated at 5 K/min in DSC, peak temperature of the highest peak
Protocol: In this Example the Fibre dissolution temperature (FDT) is measured in the DSC process described later herein, by observing when the fibres dissolve whilst the temperature of sample rises. FDT is taken to be the peak temperature of the highest peak.
In REF2 and REF3, the acyl substituents at the other seven cellobiose sites are nonanoyl.
Samples of gel (about 20 mg) were sealed in stainless steel capsules for DSC. An empty stainless steel capsule was used as the physical reference. The samples were subjected to the following temperature programme:
The sample was heated to 100° C. and held at 100° C. for 1 minute, in order to obtain an isotropic solution. The sample was then cooled at 5 K/min to −20° C. The sample was held at −20° C. for 1 minute. The sample is now a gel on the bottom of the sample capsule prepared in a reproducible manner. The gel was then heated at 5 K/min to 100° C. Data was also obtained with empty stainless steel pans as both physical sample and reference. This blank data was later subtracted from the sample data to remove any curvature in the base line.

[2] = Gelling of water-immiscible cosmetic liquids in 96 well glass micro-titre plate; parameters: key: gel; g4: gel after overnight (18 hrs) storage at 4° C.; g22: gel after overnight (18 hrs) storage at 22° C.; sg: soft gel; sg22: soft gel after overnight (18 hrs) storage at 22° C.; solution; *: the test at 4° C. was not carried out; conditions: for gelling of ISA: 150° C. 2.5 hours, cooled to ambient
Summary of the method: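 Esterified cellobiose at about 5% or 10% was mixed with the cosmetic liquid in lidded glass wells and heated at 150 °C for 2.5 h, then cooled to ambient. Gelling was judged by visual inspection and micro-spatula probing after cooling, after 18 h at 18 °C, and after a further 18 h at 4 °C.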

[3] = Stability testing of gels: crystal growth visible by eye on storage at 37° C.; conditions: for Observations: 9% of REF1 and 1% of additional structurant
Protocol: Gels were made up using 10% structurant in a 60:40 mixture of Hydrogenated Polyisobutene (Panalene L14E):DC245. The gels, in sealed glass bottles, were left to stand for 18 hrs at room temperature, after which they were transferred to an oven thermostatically controlled to 37° C. Samples were checked periodically for signs of crystal growth visible by eye. REF1 is cellobiose octanonanoate.
Gels were made up and tested in accordance with the procedure in Example 6, as such or modified by employing a weight ratio of 9% of REF1 and 1% of an additional structurant as specified in Table 13 below.
The test procedure of Example 9 was repeated, but using ACB structurant REF2 alone as the structurant or to which a CHME structurant was added.

[4] = Light transmission at 580 nm (% T); conditions: for Clarity % T: 9% REF2 and 1% of the specified ester in 60:40 hydrogenated polydecene:DC245, 580 nm
Protocol: The translucency of a composition may be measured by placing a sample of standardised thickness in the light path of a spectrophotometer and measuring transmittance, as a percentage of light transmitted in the absence of the gel.
This test was carried out using a dual-beam spectrophotometer. The sample of composition was poured hot into a 4.5 ml cuvette made of poly(methyl-methacrylate) (PMMA) and allowed to cool to an ambient temperature of 20-25° C. Such a cuvette gives a 1 cm thickness of composition. […] A transmittence measured at any temperature in the range from 20-25° C. is usually adequately accurate, but measurement is made at 22° C. if more precision is required.

[5] = Visual assessment score (clarity of gel in 1 cm cuvette); conditions: for Clarity Visual (assessment score): 9% REF2 and 1% of the specified ester in 60:40 hydrogenated polydecene:DC245, scale −12 to 8; for Clarity Visual (appearance): 60:40 hydrogenated polydecene:DC245 gelled with 9% REF2 and 1% of the specified cellobiose ester
Excerpt: A gel contained within a 1 cm thick cuvette was placed directly on to a sheet of white paper on which 21 sets of figures where printed in black. The size and thickness of the figures varied systematically and were numbered from −12 (the largest, thickest set) through 0 to 8 (the smallest thinnest set) The score given to each gel was the highest numbered set which could be read clearly through the gel, the higher the number, the higher the clarity.

[6] = 5% cellobiose ester in Finsolv TN
[7] = 5% cellobiose ester in Fluid AP
[8] = 5% cellobiose ester in Mineral oil
[9] = 5% cellobiose ester in Polydecene
[10] = 10% cellobiose ester in Finsolv TN
[11] = 10% cellobiose ester in Fluid AP
[12] = 10% cellobiose ester in Mineral oil
[13] = 10% cellobiose ester in Polydecene
[14] = 10% structurant in 60:40 Panalene L14E:DC245, after 17 days at 37° C.

Row | SMILES | Solubility of structurant at 25° C. [1] | FDT [1] [°C] | gelling of DC556 ([2]; 5% cellobiose ester in DC556) | gelling of Finsolv TN [2, 6] | gelling of Fluid AP [2, 7] | gelling of IPM ([2]; 5% cellobiose ester in IPM) | gelling of ISA ([2]; 5% cellobiose ester in ISA) | gelling of Mineral oil [2, 8] | gelling of Polydecene [2, 9] | gelling of DC556 ([2]; 10% cellobiose ester in DC556) | gelling of Finsolv TN [2, 10] | gelling of Fluid AP [2, 11] | gelling of IPM ([2]; 10% cellobiose ester in IPM) | gelling of ISA ([2]; 10% cellobiose ester in ISA) | gelling of Mineral oil [2, 12] | gelling of Polydecene [2, 13] | Clarity % T [4] [%] | Clarity Visual (assessment score) [5] | Clarity Visual (appearance) [5] | Observation [3, 14] | also measured
1 | CCCCCCCCC(=O)OCC1OC(OC2C(COC(=O)CCCCCCCC)OC(OC(=O)c3ccccc3)C(OC(=O)CCCCCCCC)C2OC(=O)CCCCCCCC)C(OC(=O)CCCCCCCC)C(OC(=O)CCCCCCCC)C1OC(=O)CCCCCCCC (mixture of isomers) [Ex 1.1] | Less soluble. No | 64 | gel | g4 | gel | g4 | g22 | gel | gel | gel | gel | gel | gel | gel | gel | gel | 55 | translucent 5 | transparent/ | – | Observations ([3]; after 11 days at 37° C.): Slight crystal growth on surface after 11; Observation ([3]; REF2 to which the CHME structurant was added, after 12 days at 37° C.): No crystals after 12 days at 37 °C
2 | CCCCCCCCC(=O)OCC1OC(OC2C(COC(=O)CCCCCCCC)OC(OC(=O)c3ccccc3)C(OC(=O)CCCCCCCC)C2OC(=O)CCCCCCCC)C(OC(=O)CCCCCCCC)C(OC(=O)CCCCCCCC)C1OC(=O)CCCCCCCC (mixture of isomers) [Ex 1.2] | Less soluble. No | 67 | gel | sol | sg | sol | sg | sg | gel | gel | sol | gel | sol | gel | gel | gel | 38 | translucent 4 | transparent/ | No crystals after 17 days. | –
3 | CCCCCCCCC(=O)OCC1OC(OC2C(COC(=O)CCCCCCCC)OC(OC(C)=O)C(OC(=O)CCCCCCCC)C2OC(=O)CCCCCCCC)C(OC(=O)CCCCCCCC)C(OC(=O)CCCCCCCC)C1OC(=O)CCCCCCCC (mixture of isomers) [Ex 1.5] | Less soluble. No | 50 | g22 | – | gel | – | g22 | g22 | gel | gel | – | gel | – | gel | gel | gel | 49 | > 8 | transparent | – | –
4 | CCCCCCCCC(=O)OCC1OC(OC2C(COC(=O)CCCCCCCC)OC(OC(C)=O)C(OC(=O)CCCCCCCC)C2OC(=O)CCCCCCCC)C(OC(=O)CCCCCCCC)C(OC(=O)CCCCCCCC)C1OC(=O)CCCCCCCC (mixture of isomers) [Ex 1.6] | Less soluble. No | 70 | sg22 | – | sg | – | sg | sg | gel | gel | – | gel | – | gel | gel | gel | 49 | > 8 | transparent | – | –
5 | CCCCCCCCC(=O)OCC1OC(OC2C(COC(=O)CCCCCCCC)OC(OC(=O)CCCCCCCC)C(OC(=O)CCCCCCCC)C2OC(=O)CCCCCCCC)C(OC(=O)CCCCCCCC)C(OC(=O)CCCCCCCC)C1OC(=O)CCCCCCCC (mixture of isomers) [REF 3, reference compound] | Slightly less soluble | 47 | – | – | – | – | – | – | – | – | – | – | – | – | – | – | 46 | translucent 4 | transparent/ | – | Observations ([3]; after 1 day at 37° C.): Some crystal growth on gel surface after; Observations ([3]; after 9 days at 37° C.): Crystals throughout gel after 9 days at; Observations ([3]; after 13 days at 37° C.): 37° C.; More crystals throughout gel after
6 | CCCCCCCCC(=O)OC[C@H]1O[C@@H](O[C@H]2[C@H](OC(=O)CCCCCCCC)[C@@H](OC(=O)CCCCCCCC)C(OC(=O)CCCCCCCC)O[C@@H]2COC(=O)CCCCCCCC)[C@H](OC(=O)CCCCCCCC)[C@@H](OC(=O)CCCCCCCC)[C@@H]1OC(=O)CCCCCCCC (stereo partly shown) [REF 2, cellobiose octanonanoate] | Benchmark. Some | 47 | – | – | – | – | – | – | – | – | – | – | – | – | – | – | 41 | slight haze 5 | transparent/ | Large amount of crystals throughout | Observation ([3]; 10% structurant in 60:40 Panalene L14E:DC245, after 7 days at 37° C.): Slight loss of clarity after 7 days; Observation ([3]; 10% structurant in 60:40 Panalene L14E:DC245, after 7 days at 37° C., listed as REF2): Slight loss of clarity after 7 days at 37 °C; Observation ([3]; 10% structurant in 60:40 Panalene L14E:DC245, after 8 days at 37° C.): Fine crystals on surface after 8; Observation ([3]; 10% structurant in 60:40 Panalene L14E:DC245, after 8 days at 37° C., listed as REF2): Fine crystals on surface after 8 days at 37 °C; Observation ([3]; 10% structurant in 60:40 Panalene L14E:DC245, after 9 days at 37° C.): Fine needle crystals throughout gel; Observation ([3]; 10% structurant in 60:40 Panalene L14E:DC245, after 9 days at 37° C., listed as REF2): Fine needle crystals throughout gel after 9; Observation ([3]; 10% structurant in 60:40 Panalene L14E:DC245, after 13 days at 37° C., listed as REF2): More needle crystals in gel bulk and crystal; % T Ex 1.12 ([4]; CHME = Ex 1.12, CHME:REF2 at stated weight ratio, total 10% in 60:40 Silkflo 364NF:DC245): 41%; % T Ex 1.13 ([4]; CHME = Ex 1.13, CHME:REF2 at stated weight ratio, total 10% in 60:40 Silkflo 364NF:DC245): 41%
